This is an account of results in paper PMC9629815, “MK256 is a novel CDK8 inhibitor with potent antitumor activity in AML through downregulation of the STAT pathway” (Oncotarget, 2022).

One data set deals with CYP2C9 (Homo sapiens, UniProt P11712). As to the kind of experiment: Cytochrome P450 inhibition assay. It counts as in vitro ADME. Conditions: 50 uM.
Data set [1] is described as follows: Hepatocyte stability assay. The format is in vitro ADME, Human. The method, then: (§1) Human LiverPoolTM 20-donor, dog and mouse cryopreserved hepatocytes were obtained from BioreclamationIVT. Cryopreserved hepatocytes were removed from the liquid nitrogen tank and thawed in a 37°C water bath. As soon as the cells pulled away from the vial wall, they were decanted into 48 ml of warm HT medium. Cells were centrifuged for four minutes at 420 rpm (50 g). After the supernatant was removed, the pellet was re-suspended in warm DMEM medium. Cell density was counted by a hemacytometer. The assay was carried out in 96-well microtiter plates. MK256 was incubated for 0, 60, 120, and 180 minutes at 37°C with hepatocytes. Reaction mixtures (50 μL) contained a final concentration of 1 μM MK256, 0.5 million cells/mL hepatocytes in the DMEM medium. At each time point (for example, 0, 1, 2, and 3 hrs), 200 μL of quench solution (100% acetonitrile with 0.1% formic acid) with internal standard were transferred to each well. […] All samples were analyzed on LC/MS/MS using an AB Sciex API 4000 instrument, coupled to a Shimadzu LC-20AD LC Pump system. […] The extent of metabolism was calculated as the disappearance of the test compound, compared to the 0-min control reaction incubations. Initial rates were calculated for the compound concentration and used to determine t1/2 values and subsequently, the intrinsic clearance, CLint = (0.693)(1/t1/2 (min))(mL incubation/million cells).

Another data set concerns MOLM-14 cells. As to the kind of experiment: Cell viability dose-response matrix of MK256 and venetoclax. The format is cell-based. Conditions: Homo sapiens, Venetoclax 0 nM, 72 hrs, read-out: percentage of cell viability. An excerpt:
Our earlier experiments showing the clearly increasing expression of BCL-2 in the MOLM-14 cell line led us to ask if there was any combinational effect between MK256 and a BCL-2 inhibitor in MOLM-14 cells. To address this question, we chose venetoclax (ABT-199), an FDA-approved BCL-2 inhibitor for AML and CLL, for the combination study. We treated MOLM-14 cells with MK256 and venetoclax at a series of concentration combinations, measured cell viability, and reported the data in a dose-response matrix (Figure 8). […] We also investigated the apoptotic effect of the combination treatment in the MOLM-14 cell line (Figure 10B).
Figure 10 (A) Dose-response matrix of percentage of cell viability of 10,000 MOLM-14 cells after 72 hrs treatment of MK256 and venetoclax at various concentration combinations. (B) Annexin V staining of 10,000 MOLM-14 cells after 72 hrs treatment of MK256 and venetoclax(ABT199) at various concentration combinations. Status of cells are labeled in the graph at the upper left corner. (C) Tumor growth of MOLM-14 xenograft model. Groups of control; ABT199 (25 mg/kg); ABT199 (25 mg/kg) + MK256 (10 mg/kg); ABT199 25 mg/kg + MK256 (50 mg/kg) were shown in straight line, dotted line, 3 dashed line and 2 dashed line, respectively. ^*** P < 0.001. (D) Body weight percentage of MOLM-14 tumor model. […]

A further data set concerns the target hERG (Homo sapiens, UniProt Q12809). As to the kind of experiment: hERG safety assay. Conditions: 30 uM.
The nature of data set [2]: Hepatocyte stability assay. It counts as in vitro ADME, Dog. Here is the method:
as §1

A further data set addresses CYP3A4-TS (Homo sapiens, UniProt P08684). As to the kind of experiment: Cytochrome P450 inhibition assay. It counts as in vitro ADME. Conditions: 50 uM.

Read-outs that look alike come from different tables or passages of the source.

CYP2C9, sequence (P11712 whole entry): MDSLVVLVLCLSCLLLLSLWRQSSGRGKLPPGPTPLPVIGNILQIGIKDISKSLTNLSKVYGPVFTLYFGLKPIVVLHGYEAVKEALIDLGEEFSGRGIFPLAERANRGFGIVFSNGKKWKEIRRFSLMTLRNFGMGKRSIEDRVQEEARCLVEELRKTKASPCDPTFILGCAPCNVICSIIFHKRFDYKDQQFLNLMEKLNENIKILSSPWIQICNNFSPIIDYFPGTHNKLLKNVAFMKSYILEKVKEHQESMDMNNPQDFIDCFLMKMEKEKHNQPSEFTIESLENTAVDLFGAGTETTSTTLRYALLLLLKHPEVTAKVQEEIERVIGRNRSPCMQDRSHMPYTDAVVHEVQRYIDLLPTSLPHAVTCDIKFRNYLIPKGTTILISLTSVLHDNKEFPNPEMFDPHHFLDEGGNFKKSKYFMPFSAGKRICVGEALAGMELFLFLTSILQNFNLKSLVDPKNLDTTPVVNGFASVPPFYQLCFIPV
CYP3A4-TS, sequence (P08684 whole entry): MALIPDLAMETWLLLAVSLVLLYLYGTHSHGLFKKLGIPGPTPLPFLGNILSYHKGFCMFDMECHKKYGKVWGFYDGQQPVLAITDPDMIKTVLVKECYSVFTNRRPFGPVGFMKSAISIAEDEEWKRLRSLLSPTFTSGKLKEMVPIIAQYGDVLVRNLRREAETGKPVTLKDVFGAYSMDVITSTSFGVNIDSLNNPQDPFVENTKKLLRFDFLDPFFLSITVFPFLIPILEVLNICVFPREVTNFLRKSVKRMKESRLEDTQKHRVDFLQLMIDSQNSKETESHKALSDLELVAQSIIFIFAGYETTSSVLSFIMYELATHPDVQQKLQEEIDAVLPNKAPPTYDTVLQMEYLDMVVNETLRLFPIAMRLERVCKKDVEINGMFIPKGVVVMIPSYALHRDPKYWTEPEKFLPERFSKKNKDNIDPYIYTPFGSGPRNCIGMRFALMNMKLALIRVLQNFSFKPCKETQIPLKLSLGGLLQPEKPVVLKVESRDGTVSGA
hERG, sequence (Q12809 whole entry): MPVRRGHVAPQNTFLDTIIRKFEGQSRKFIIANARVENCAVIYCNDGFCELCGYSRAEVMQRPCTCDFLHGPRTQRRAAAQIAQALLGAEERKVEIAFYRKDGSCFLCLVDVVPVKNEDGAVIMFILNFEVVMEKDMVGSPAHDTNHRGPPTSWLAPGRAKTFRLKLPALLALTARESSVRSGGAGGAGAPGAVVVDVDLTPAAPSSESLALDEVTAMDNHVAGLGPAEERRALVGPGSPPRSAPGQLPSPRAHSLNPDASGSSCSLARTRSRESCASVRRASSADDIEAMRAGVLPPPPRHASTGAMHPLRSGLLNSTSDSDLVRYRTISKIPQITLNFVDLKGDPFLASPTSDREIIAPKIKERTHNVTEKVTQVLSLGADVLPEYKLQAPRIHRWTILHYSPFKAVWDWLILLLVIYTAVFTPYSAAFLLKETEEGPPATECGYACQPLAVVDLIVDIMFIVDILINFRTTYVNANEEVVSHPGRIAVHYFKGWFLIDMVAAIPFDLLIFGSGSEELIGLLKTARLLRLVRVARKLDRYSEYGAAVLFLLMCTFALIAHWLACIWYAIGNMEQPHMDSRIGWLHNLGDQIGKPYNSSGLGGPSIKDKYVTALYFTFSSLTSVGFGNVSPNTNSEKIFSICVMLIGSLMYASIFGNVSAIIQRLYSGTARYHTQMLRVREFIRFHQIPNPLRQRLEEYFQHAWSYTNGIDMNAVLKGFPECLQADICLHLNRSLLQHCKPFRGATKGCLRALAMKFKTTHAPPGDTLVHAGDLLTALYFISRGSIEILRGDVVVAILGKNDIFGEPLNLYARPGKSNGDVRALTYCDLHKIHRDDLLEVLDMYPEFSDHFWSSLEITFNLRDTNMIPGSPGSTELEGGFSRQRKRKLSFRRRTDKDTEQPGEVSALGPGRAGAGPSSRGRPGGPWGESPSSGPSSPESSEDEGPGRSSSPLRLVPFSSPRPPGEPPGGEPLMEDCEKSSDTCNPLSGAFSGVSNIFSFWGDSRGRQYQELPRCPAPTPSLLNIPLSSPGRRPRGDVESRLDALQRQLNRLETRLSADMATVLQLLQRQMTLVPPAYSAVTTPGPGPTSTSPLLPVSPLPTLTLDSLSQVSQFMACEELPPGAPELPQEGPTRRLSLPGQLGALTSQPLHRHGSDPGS

In the case of `Nc1nccc2c(Br)cc3cc(C(=O)O)ccc3c12` [MK256], the “cytochrome P450 inhibition” value on CYP2C9 and on CYP3A4-TS was “no inhibition” in each case. In addition, the “Clint (μL·min^−1·mg protein^−1)” value is 16 μL·min^−1·mg protein^−1 in data set [1] (Human hepatocytes) and 7 μL·min^−1·mg protein^−1 in data set [2] (Dog hepatocytes). Also, the half-life at 1 µM worked out at 1.48 h in data set [1] (human, cryopreserved human hepatocytes (LiverPool 20-donor), read-out: T½) and 3.57 h in data set [2] (dog, cryopreserved dog hepatocytes, read-out: T½). For the same compound, the viability at 0.0015 µM with MOLM-14 cells (MK256 1.5 nM) stood at 110%. In the data set on MOLM-14 cells (MK256 4.6 nM), the viability at 0.0046 µM was 101%. Further, the viability at 0.0137 µM in the data set on MOLM-14 cells (MK256 13.7 nM) came out at 103%. Moreover, in the data set with MOLM-14 cells (MK256 41.2 nM), the viability at 0.0412 µM is 103%. Also, the viability at 0.1235 µM in the data set on MOLM-14 cells (MK256 123.5 nM) was 100%. Further, in the data set with MOLM-14 cells (MK256 370.4 nM), the viability at 0.3704 µM was 90%. Moreover, the viability at 1.1 µM with MOLM-14 cells (MK256 1100 nM) was 32%. Also, the viability at 10 µM in the data set with MOLM-14 cells (MK256 10000 nM) worked out at 0%. In addition, the viability at 30 µM in the data set with MOLM-14 cells (MK256 30000 nM) came to 0%. The “inhibition of hERG” value on hERG was “no inhibition”.
